Laboratory results published in patent US20230265116A1, “DEGRADATION OF (EGFR) BY CONJUGATION OF EGFR INHIBITORS WITH E3 LIGASE LIGAND AND METHODS OF USE” (BEIGENE, LTD., priority 2020, published 2023).

What was measured:
[1] = tested on: EGFR Del19/T790M/C797S (BaF3-DTC cells); assay: EGFR degradation HTRF assay, BaF3-DTC cells; assay type: cell-based; details: 16h treatment; for DTC Dmax (%): maximum percentage of degradation; for DC50: read-out: DTC DC50
Summary of the method: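 EGFR remaining after a 16 h, 37 °C exposure (8 doses, 5-fold steps from 10 uM final, 0.2% DMSO) was quantified by HTRF antibodies in cell lysate. Percent inhibition relative to DMSO control was fitted by four-parameter logistic to give DC50; Dmax denotes maximal degradation.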

[2] = biological target: T1, EGFR L858R/T790M/C797S (BaF3-LTC cells) (Homo sapiens, UniProt P00533, C797S/L858R/T790M); assay: EGFR degradation HTRF assay, BaF3-LTC cells; assay type: cell-based; details: BaF3-LTC, 16h treatment; for Dmax: maximum percentage of degradation, read-out: LTC Dmax (%); for DC50: read-out: LTC DC50
T1 construct: expressed in transfected cells; host or cells: BaF3
T1 sequence (P00533 25-1210 T790M/C797S/L858R): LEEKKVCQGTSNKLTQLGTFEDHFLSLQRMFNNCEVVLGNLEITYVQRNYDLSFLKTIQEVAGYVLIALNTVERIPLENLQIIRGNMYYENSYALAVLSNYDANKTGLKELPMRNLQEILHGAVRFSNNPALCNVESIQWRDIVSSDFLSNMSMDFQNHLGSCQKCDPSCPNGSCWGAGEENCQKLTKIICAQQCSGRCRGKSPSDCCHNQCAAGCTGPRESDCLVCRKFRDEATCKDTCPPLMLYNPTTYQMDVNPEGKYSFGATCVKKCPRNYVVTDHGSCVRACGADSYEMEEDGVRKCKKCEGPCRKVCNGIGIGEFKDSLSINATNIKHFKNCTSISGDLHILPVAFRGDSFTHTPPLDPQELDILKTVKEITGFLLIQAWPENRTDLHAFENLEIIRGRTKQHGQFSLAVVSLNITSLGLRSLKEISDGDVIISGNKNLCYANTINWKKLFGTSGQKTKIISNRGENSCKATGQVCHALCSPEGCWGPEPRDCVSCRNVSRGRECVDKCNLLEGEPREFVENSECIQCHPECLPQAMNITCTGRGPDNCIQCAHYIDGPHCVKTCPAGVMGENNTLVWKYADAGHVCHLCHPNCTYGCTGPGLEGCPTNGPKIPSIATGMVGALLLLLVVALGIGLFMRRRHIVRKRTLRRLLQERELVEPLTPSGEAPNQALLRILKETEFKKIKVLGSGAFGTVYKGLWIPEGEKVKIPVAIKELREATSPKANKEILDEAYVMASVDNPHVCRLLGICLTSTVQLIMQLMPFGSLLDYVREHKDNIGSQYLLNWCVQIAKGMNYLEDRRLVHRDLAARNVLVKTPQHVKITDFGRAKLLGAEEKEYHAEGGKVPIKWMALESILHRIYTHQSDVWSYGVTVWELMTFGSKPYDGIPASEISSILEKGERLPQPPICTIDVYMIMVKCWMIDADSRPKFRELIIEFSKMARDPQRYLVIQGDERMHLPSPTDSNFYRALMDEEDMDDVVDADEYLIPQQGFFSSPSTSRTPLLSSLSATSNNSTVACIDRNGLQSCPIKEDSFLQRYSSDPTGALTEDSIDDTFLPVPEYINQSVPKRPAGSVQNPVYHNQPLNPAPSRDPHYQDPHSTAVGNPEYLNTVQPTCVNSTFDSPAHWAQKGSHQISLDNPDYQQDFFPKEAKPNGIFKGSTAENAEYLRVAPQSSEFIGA
Summary of the method: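 Cells treated 16 h at 37 °C, 5% CO2 in medium with 0.2% DMSO; top final concentration 10 uM, 5-fold dilution, 8 doses. Lysates read by HTRF (665/620 nm); degradation % versus DMSO high control, DC50 from four-parameter fit, Dmax as maximal degradation.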

Structure (SMILES) | DTC Dmax (%) [1] | DC50 [1] | Dmax [2] | DC50 [2]
CCc1cc(Nc2ncc(Br)c(Nc3ccc4nc(C)ccc4c3P(C)(C)=O)n2)c(OC)cc1N1CCC(N2CCN([C@H]3C[C@@H](c4cc(F)c(C5CCC(=O)NC5=O)c(F)c4)C3)CC2)CC1 (stereo partly drawn) [Example 717, 3-(4-((1s,3s)-3-(4-(1-(4-((5-bromo-4-((5-(dimethylphosphoryl)-2-methylquinolin-6-yl)amino)pyrimidin-2-yl)amino)-2-ethyl-5-methoxyphenyl)piperidin-4-yl)piperazin-1-yl)cyclobutyl)-2,6-difluorophenyl)piperidine-2,6-dione] | 94.13% | 5.98 nM | 91.4% | 17.1 nM
CCc1cc(Nc2ncc(Br)c(Nc3ccc4nccnc4c3P(C)(C)=O)n2)c(OC)cc1N1CCC(N2CCN(CCc3ccc(C4CCC(=O)NC4=O)c(F)c3)[C@@H](CO)C2)CC1 (stereo partly drawn) [Example 287, 3-(4-(2-((R)-4-(1-(4-((5-bromo-4-((5-(dimethylphosphoryl)quinoxalin-6-yl)amino)pyrimidin-2-yl)amino)-2-ethyl-5-methoxyphenyl)piperidin-4-yl)-2-(hydroxymethyl)piperazin-1-yl)ethyl)-2-fluorophenyl)piperidine-2,6-dione] | 88.55% | 5.2 nM | 84.8% | 22.9 nM
CCc1cc(Nc2ncc(Br)c(Nc3ccc4nc(C(F)(F)F)ccc4c3P(C)(C)=O)n2)c(OC)cc1N1CCC(N2CCN(CCC3CCN(c4cc(F)c(C5CCC(=O)NC5=O)c(F)c4)CC3)CC2)CC1 (stereo not drawn) [Example 437, 3-(4-(4-(2-(4-(1-(4-((5-bromo-4-((5-(dimethylphosphoryl)-2-(trifluoromethyl)quinolin-6-yl)amino)pyrimidin-2-yl)amino)-2-ethyl-5-methoxyphenyl)piperidin-4-yl)piperazin-1-yl)ethyl)piperidin-1-yl)-2,6-difluorophenyl)piperdine-2,6-dione] | 83.88% | 14.9 nM | 91.2% | 28 nM
COc1cc(N2CCC(N3CCN(CCC4CCN(c5cc(F)c(C6CCC(=O)NC6=O)c(F)c5)CC4)CC3)CC2)ccc1Nc1ncc(Br)c(Nc2ccc3nc(C)ccc3c2P(C)(C)=O)n1 (stereo not drawn) [Example 218, 3-(4-(4-(2-(4-(1-(4-((5-bromo-4-((5-(dimethylphosphoryl)-2-methylquinolin-6-yl)amino)pyrimidin-2-yl)amino)-3-methoxyphenyl)piperidin-4-yl)piperazin-1-yl)ethyl)piperidin-1-yl)-2,6-difluorophenyl)piperidine-2,6-dione] | 97.83% | 2.9 nM | 87.3% | 9.19 nM
CCc1cc(Nc2ncc(Br)c(Nc3ccc4nccnc4c3P(C)(C)=O)n2)c(OC)cc1N1CCC(N2CCN(C(=O)C3CN(c4ccc(C5CCC(=O)NC5=O)c(C#N)c4)C3)CC2)CC1 (stereo not drawn) [Example 306, 5-(3-(4-(1-(4-((5-bromo-4-((5-(dimethylphosphoryl)quinoxalin-6-yl)amino)pyrimidin-2-yl)amino)-2-ethyl-5-methoxyphenyl)piperidin-4-yl)piperazine-1-carbonyl)azetidin-1-yl)-2-(2,6-dioxopiperidin-3-yl)benzonitrile] | 73.14% | 9.57 nM | 85.8% | 17.1 nM
CCc1cc(Nc2ncc(Br)c(Nc3ccc4nc(C)ccc4c3P(C)(C)=O)n2)c(OC)cc1N1CCC(N2CCN(CCc3ccc4c(c3)C3(CC3)C(=O)N4C3CCC(=O)NC3=O)CC2)CC1 (stereo not drawn) [Example 710, 3-(5′-(2-(4-(1-(4-((5-bromo-4-((5-(dimethylphosphoryl)-2-methylquinolin-6-yl)amino)pyrimidin-2-yl)amino)-2-ethyl-5-methoxyphenyl)piperidin-4-yl)piperazin-1-yl)ethyl)-2′-oxospiro[cyclopropane-1,3′-indolin]-1′-yl)piperidine-2,6-dione] | 87.65% | 2.69 nM | 90.9% | 13.6 nM
CCc1cc(Nc2ncc(Br)c(Nc3ccc4c(=O)n(C)ncc4c3P(C)(C)=O)n2)c(OC)cc1N1CCC(N2CCN(CCc3cc(F)c(C4CCC(=O)NC4=O)c(F)c3)CC2)CC1 (stereo not drawn) [Example 431, 3-(4-(2-(4-(1-(4-((5-bromo-4-((5-(dimethylphosphoryl)-2-methyl-1-oxo-1,2-dihydrophthalazin-6-yl)amino)pyrimidin-2-yl)amino)-2-ethyl-5-methoxyphenyl)piperidin-4-yl)piperazin-1-yl)ethyl)-2,6-difluorophenyl)piperidine-2,6-dione] | 97.96% | 2.7 nM | 91% | 12.4 nM
CCc1cc(Nc2ncc(Cl)c(Nc3ccc4nccnc4c3P(C)(C)=O)n2)c(OC)cc1N1CCC(N2CCN(CCC3CCN(c4cc(F)c(C5CCC(=O)NC5=O)c(F)c4)CC3)CC2)CC1 (stereo not drawn) [Example 269, 3-(4-(4-(2-(4-(1-(4-((5-chloro-4-((5-(dimethylphosphoryl)quinoxalin-6-yl)amino)pyrimidin-2-yl)amino)-2-ethyl-5-methoxyphenyl)piperidin-4-yl)piperazin-1-yl)ethyl)piperidin-1-yl)-2,6-difluorophenyl)piperidine-2,6-dione] | 95.39% | 21.5 nM | 88.8% | 43.7 nM
CCc1cc(Nc2ncc(Br)c(Nc3ccc4ncccc4c3P(C)(C)=O)n2)c(OC)cc1N1CCC(N2CCN(CCC3CCN(c4cc(F)c(C5CCC(=O)NC5=O)c(F)c4)CC3)CC2)CC1 (stereo not drawn) [Example 202, 3-(4-(4-(2-(4-(1-(4-((5-bromo-4-((5-(dimethylphosphoryl)quinolin-6-yl)amino)pyrimidin-2-yl)amino)-2-ethyl-5-methoxyphenyl)piperidin-4-yl)piperazin-1-yl)ethyl)piperidin-1-yl)-2,6-difluorophenyl)piperidine-2,6-dione] | 93.39% | 7.6 nM | 87.8% | 18.5 nM
CCc1cc(Nc2ncc(Br)c(Nc3ccc4nc(C)ccc4c3P(C)(C)=O)n2)c(OC)cc1N1CCC(N2CCCN(CCc3cc(F)c(C4CCC(=O)NC4=O)c(F)c3)CC2)CC1 (stereo not drawn) [Example 713, 3-(4-(2-(4-(1-(4-((5-bromo-4-((5-(dimethylphosphoryl)-2-methylquinolin-6-yl)amino)pyrimidin-2-yl)amino)-2-ethyl-5-methoxyphenyl)piperidin-4-yl)-1,4-diazepan-1-yl)ethyl)-2,6-difluorophenyl)piperidine-2,6-dione] | 86.33% | 7.43 nM | 90.4% | 50.8 nM
CCc1cc(Nc2ncc(Br)c(Nc3ccc4nc(C)ccc4c3P(C)(C)=O)n2)c(OC)cc1N1CCC(N2C[C@H](C)N(CCc3cc(F)c(C4CCC(=O)NC4=O)c(F)c3)C[C@H]2C)CC1 (stereo partly drawn) [Example 716, 3-(4-(2-((2S,5R)-4-(1-(4-((5-bromo-4-((5-(dimethylphosphoryl)-2-methylquinolin-6-yl)amino)pyrimidin-2-yl)amino)-2-ethyl-5-methoxyphenyl)piperidin-4-yl)-2,5-dimethylpiperazin-1-yl)ethyl)-2,6-difluorophenyl)piperidine-2,6-dione] | 91.65% | 3.06 nM | 90% | 8.2 nM
CCc1cc(Nc2ncc(Br)c(Nc3ccc4nccnc4c3P(C)(C)=O)n2)c(OC)cc1N1CCC(N2CCN(CCc3cc(F)c(C4CCC(=O)NC4=O)cc3F)CC2)CC1 (stereo not drawn) [Example 233, 3-(4-(2-(4-(1-(4-((5-bromo-4-((5-(dimethylphosphoryl)quinoxalin-6-yl)amino)pyrimidin-2-yl)amino)-2-ethyl-5-methoxyphenyl)piperidin-4-yl)piperazin-1-yl)ethyl)-2,5-difluorophenyl)piperidine-2,6-dione] | 86.57% | 13.1 nM | 80.6% | 35.3 nM
CCc1cc(Nc2ncc(Br)c(Nc3ccc4nccnc4c3P(C)(C)=O)n2)c(OC)cc1N1CCC(N2C[C@@H](C)N(CC3CN(c4ccc5c(c4)C(=O)N(C4CCC(=O)NC4=O)C5=O)C3)[C@@H](C)C2)CC1 (stereo partly drawn) [Example 159, 5-(3-(((2R,6S)-4-(1-(4-((5-bromo-4-((5-(dimethylphosphoryl)quinoxalin-6-yl)amino)pyrimidin-2-yl)amino)-2-ethyl-5-methoxyphenyl)piperidin-4-yl)-2,6-dimethylpiperazin-1-yl)methyl)azetidin-1-yl)-2-(2,6-dioxopiperidin-3-yl)isoindoline-1,3-dione] | 87.25% | 9.34 nM | 88.3% | 16.1 nM
CCc1cc(Nc2ncc(Br)c(Nc3ccc4nccnc4c3P(C)(C)=O)n2)c(OC)cc1N1CCC(N2CCN(C[C@H]3C[C@H](N(C)c4ccc(C5CCC(=O)NC5=O)cc4)C3)CC2)CC1 (stereo partly drawn) [Example 245, 3-(4-(((1r,3r)-3-((4-(1-(4-((5-bromo-4-((5-(dimethylphosphoryl)quinoxalin-6-yl)amino)pyrimidin-2-yl)amino)-2-ethyl-5-methoxyphenyl)piperidin-4-yl)piperazin-1-yl)methyl)cyclobutyl)(methyl)amino)phenyl)piperidine-2,6-dione] | 87.52% | 11.9 nM | 81.4% | 30.1 nM
CCc1cc(Nc2ncc(Br)c(Nc3ccc4nccnc4c3P(C)(C)=O)n2)c(OC)cc1N1CCC(N2CCN(CC3CN(c4ccc(C5CCC(=O)NC5=O)c(C#N)c4)C3)CC2)CC1 (stereo not drawn) [Example 251, 5-(3-((4-(1-(4-((5-bromo-4-((5-(dimethylphosphoryl)quinoxalin-6-yl)amino)pyrimidin-2-yl)amino)-2-ethyl-5-methoxyphenyl)piperidin-4-yl)piperazin-1-yl)methyl)azetidin-1-yl)-2-(2,6-dioxopiperidin-3-yl)benzonitrile] | 82.01% | 7.72 nM | 87% | 2.93 nM
